From patent US6908908B2, “Biologically active 4H-benzo [1,4] oxazin-3-ones” (Ortho-McNeil Pharmaceutical, Inc., priority 2000, dated 2005)

Target: T1, PPAR γ (Homo sapiens, UniProt P37231)
T1 construct: Following the challenge of the preadipocytes, cells may be lysed with lysis buffer; endogenous in cells; host or cells: preadipocytes
T1 sequence (P37231 1-505): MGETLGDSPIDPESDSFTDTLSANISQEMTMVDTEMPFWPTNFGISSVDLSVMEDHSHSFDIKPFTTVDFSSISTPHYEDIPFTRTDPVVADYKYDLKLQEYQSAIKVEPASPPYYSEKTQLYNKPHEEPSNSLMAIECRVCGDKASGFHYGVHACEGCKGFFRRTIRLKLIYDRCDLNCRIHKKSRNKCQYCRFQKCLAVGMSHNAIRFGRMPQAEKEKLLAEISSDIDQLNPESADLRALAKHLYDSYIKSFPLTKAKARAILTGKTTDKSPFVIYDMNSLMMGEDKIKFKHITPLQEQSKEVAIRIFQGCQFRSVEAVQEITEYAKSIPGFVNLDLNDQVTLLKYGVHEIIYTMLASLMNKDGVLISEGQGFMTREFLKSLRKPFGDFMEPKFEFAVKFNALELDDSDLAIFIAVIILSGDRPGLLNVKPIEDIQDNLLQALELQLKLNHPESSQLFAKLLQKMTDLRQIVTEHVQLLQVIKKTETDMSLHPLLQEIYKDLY
Assay: aP2 Assay for Agonist (induction of aP2 mRNA production); also: test concentration or dose not given here
Assay type: cell-based
Details: Table 1; fold increase over vehicle in induction of aP2 mRNA production

SMILES | Agonist Intrinsic Activity
Cc1cccc(CN2C(=O)C(CCOc3ccccc3C(F)(F)F)Oc3ccccc32)c1 (centres unmarked) [Compound 2] | 1.2
COC(=O)c1ccccc1OCCC1Oc2ccccc2N(Cc2ccc(Cl)cc2)C1=O (centres unmarked) [Compound 5] | 0.7
O=C1C(CCOc2ccccc2C(F)(F)F)Oc2ccccc2N1Cc1cccc(C(F)(F)F)c1 (centres unmarked) [Compound 10] | 0.8
CCCCCCN1C(=O)C(CCOc2ccccc2CP(=O)(O)O)Oc2ccccc21 (centres unmarked) [Compound 15, Phosphonic acid, [[2-[2-(4-hexyl-3,4-dihydro-3-oxo-2H-1,4-benzoxazin-2-yl)ethoxy]phenyl]methyl]-] | 7.2
CCCOCCN1C(=O)C(CCOc2ccccc2C(F)(F)F)Oc2ccccc21 (centres unmarked) [Compound 20] | 1.2
CCCSCCN1C(=O)C(CCOc2ccccc2C(F)(F)F)Oc2ccccc21 (centres unmarked) [Compound 21] | 1.9
O=C(O)Cc1ccccc1OCCC1Oc2ccccc2N(CC(=O)O)C1=O (centres unmarked) [Compound 23] | 0.8
COC(=O)Cc1ccccc1OCCC1Oc2ccccc2N(CCOC(C)=O)C1=O (centres unmarked) [Compound 24] | 1.3
O=C(O)Cc1ccccc1OCCC1Oc2ccccc2N(CCO)C1=O (centres unmarked) [Compound 25] | 3.5
COC(=O)Cc1ccccc1OCCC1Oc2ccccc2N(Cc2cccc(C(F)(F)F)c2)C1=O (centres unmarked) [Compound 27] | 0.8
O=C([O-])Cc1ccccc1OCCC1Oc2ccccc2N(Cc2cccc(C(F)(F)F)c2)C1=O.[Na+] (centres unmarked) [Compound 28] | 21.5
COC(=O)CCc1ccccc1OCCC1Oc2ccccc2N(Cc2cccc(C(F)(F)F)c2)C1=O (centres unmarked) [Compound 29] | 0.8
COC(=O)CCCc1ccccc1OCCC1Oc2ccccc2N(Cc2cccc(C(F)(F)F)c2)C1=O (centres unmarked) [Compound 31] | 0.9
O=C([O-])CCCc1ccccc1OCCC1Oc2ccccc2N(Cc2cccc(C(F)(F)F)c2)C1=O.[Na+] (centres unmarked) [Compound 32] | 8.2
COC(=O)Cc1ccccc1OCCC1Oc2ccccc2N(Cc2ccc(C(F)(F)F)cc2)C1=O (centres unmarked) [Compound 37] | 1.2
O=C(O)Cc1cccc(OCCC2Oc3ccccc3N(Cc3cc(C(F)(F)F)cc(C(F)(F)F)c3)C2=O)c1 (centres unmarked) [Compound 44] | 6.8
COC(=O)Cc1ccccc1OCCC1Oc2ccccc2N(CC(=O)OC)C1=O (centres unmarked) [Compound 45] | 7.2
O=C(O)Cc1ccccc1OCCC1Oc2ccccc2N(CC(=O)O)C1=O (centres unmarked) [Compound 46] | 2
CCCCCCCN1C(=O)C(CCOc2ccccc2CC(=O)O)Oc2ccccc21 (centres unmarked) [Compound 51] | 28.6
O=C(O)CCCCN1C(=O)C(CCOc2ccccc2CC(=O)O)Oc2ccccc21 (centres unmarked) [Compound 60] | 1.5
NC(=O)CCCCN1C(=O)C(CCOc2ccccc2CC(=O)O)Oc2ccccc21 (centres unmarked) [Compound 62] | 1.5
O=C(O)Cc1ccccc1OCCC1Oc2ccccc2N(CCCCCO)C1=O (centres unmarked) [Compound 64] | 3.6
O=C(O)Cc1ccccc1OCCC1Oc2ccccc2N(CCC2CCCC2)C1=O (centres unmarked) [Compound 68] | 43.2
O=C(O)Cc1ccccc1OCCC1Oc2ccccc2N(CCCC2CCCC2)C1=O (centres unmarked) [Compound 70] | 57.9
CC(C)CCCCN1C(=O)C(CCOc2ccccc2CC(=O)O)Oc2ccccc21 (centres unmarked) [Compound 72] | 32
CC(C)(C)CCCCN1C(=O)C(CCOc2ccccc2CC(=O)O)Oc2ccccc21 (centres unmarked) [Compound 74] | 22.0

The remaining lines, values ahead:

Agonist Intrinsic Activity | SMILES
45.4 | CC(F)(F)CCCCN1C(=O)C(CCOc2ccccc2CC(=O)O)Oc2ccccc21 (single isomer, unassigned) [Compound 88]
42.0 | CC(F)(F)CCCCN1C(=O)C(CCOc2ccccc2CC(=O)O)Oc2ccccc21 (single isomer, unassigned) [Compound 89]
44.8 | O=C(O)Cc1ccccc1OCCC1Oc2ccccc2N(CCCCCCF)C1=O (single isomer, unassigned) [Compound 92]
53.1 | O=C(O)Cc1ccccc1OCCC1Oc2ccccc2N(CCCCCCF)C1=O (single isomer, unassigned) [Compound 93]
0.9 | COC(=O)c1ccccc1OCCC1Oc2ccccc2N(Cc2ccc(C)cc2)C1=O (centres unmarked) [Compound 1]
0.6 | COC(=O)c1ccccc1OCCC1Oc2ccccc2N(Cc2cccc(C)c2)C1=O (centres unmarked) [Compound 3]
1.0 | COC(=O)c1ccccc1OCCC1Oc2ccccc2N(Cc2ccccc2)C1=O (centres unmarked) [Compound 4]
3.3 | O=C1C(CCOc2ccccc2C(F)(F)F)Oc2ccccc2N1Cc1ccc(Cl)c(Cl)c1 (centres unmarked) [Compound 8]
0.9 | COC(=O)c1ccccc1OCCC1Oc2ccccc2N(Cc2cccc(C(F)(F)F)c2)C1=O (centres unmarked) [Compound 9, Benzoic acid, 2-[2-[3,4-dihydro-3-oxo-4-[[3-(trifluoromethyl)phenyl]methyl]-2H-1,4-benzoxazin-2-yl]ethoxy]-, methyl ester]
2.6 | CCCCCCN1C(=O)C(CCOc2ccccc2C(=O)C(=O)O)Oc2ccccc21 (centres unmarked) [Compound 13, Benzeneacetic acid, 2-[2-(4-hexyl-3,4-dihydro-3-oxo-2H-1,4-benzoxazin-2-yl)ethoxy]-a-oxo-]
1.1 | CCCCCCCCCCN1C(=O)C(CCOc2ccccc2C(F)(F)F)Oc2ccccc21 (centres unmarked) [Compound 17]
0.3 | COCCCCN1C(=O)C(CCOc2ccccc2C(F)(F)F)Oc2ccccc21 (centres unmarked) [Compound 18]
1.4 | CCOCCCN1C(=O)C(CCOc2ccccc2C(F)(F)F)Oc2ccccc21 (centres unmarked) [Compound 19]
7.2 | COC(=O)Cc1ccccc1OCCC1Oc2ccccc2N(CC(=O)OC)C1=O (centres unmarked) [Compound 22]
3.1 | O=C([O-])c1ccccc1OCCC1Oc2ccccc2N(Cc2cccc(C(F)(F)F)c2)C1=O.[Na+] (centres unmarked) [Compound 26, Benzoic acid, 2-[2-[3,4-dihydro-3-oxo-4-[[3-(trifluoromethyl)phenyl]methyl]-2H-1,4-benzoxazin-2-yl]ethoxy]-, monosodium salt]
5.6 | O=C([O-])CCc1ccccc1OCCC1Oc2ccccc2N(Cc2cccc(C(F)(F)F)c2)C1=O.[Na+] (centres unmarked) [Compound 30]
0.8 | COC(=O)Cc1cccc(OCCC2Oc3ccccc3N(Cc3cccc(C(F)(F)F)c3)C2=O)c1 (centres unmarked) [Compound 33]
10.4 | O=C([O-])Cc1cccc(OCCC2Oc3ccccc3N(Cc3cccc(C(F)(F)F)c3)C2=O)c1.[Na+] (centres unmarked) [Compound 34]

Agonist Intrinsic Activity | SMILES
0.8 | COC(=O)CCc1cccc(OCCC2Oc3ccccc3N(Cc3cccc(C(F)(F)F)c3)C2=O)c1 (centres unmarked) [Compound 35]
11.1 | O=C([O-])CCc1cccc(OCCC2Oc3ccccc3N(Cc3cccc(C(F)(F)F)c3)C2=O)c1.[Na+] (centres unmarked) [Compound 36]
38.7 | O=C(O)Cc1ccccc1OCCC1Oc2ccccc2N(Cc2ccc(C(F)(F)F)cc2)C1=O (centres unmarked) [Compound 38]
6.7 | O=C(O)Cc1ccccc1OCCC1Oc2ccccc2N(Cc2cc(C(F)(F)F)cc(C(F)(F)F)c2)C1=O (centres unmarked) [Compound 40]
2.1 | O=C(O)CCc1ccccc1OCCC1Oc2ccccc2N(Cc2cc(C(F)(F)F)cc(C(F)(F)F)c2)C1=O (centres unmarked) [Compound 42]
1.3 | COC(=O)Cc1ccccc1OCCC1Oc2ccccc2N(CCOC(C)=O)C1=O (centres unmarked) [Compound 47]
8 | O=C(O)Cc1ccccc1OCCC1Oc2ccccc2N(CCO)C1=O (centres unmarked) [Compound 48]
5.7 | C#CCN1C(=O)C(CCOc2ccccc2CC(=O)OC)Oc2ccccc21 (centres unmarked) [Compound 49]
6.2 | CCCCCCCN1C(=O)C(CCOc2ccccc2CC(=O)OC)Oc2ccccc21 (centres unmarked) [Compound 50]
1.3 | CCCCCCCCN1C(=O)C(CCOc2ccccc2CC(=O)OC)Oc2ccccc21 (centres unmarked) [Compound 52]
26.4 | CCCCCCCCN1C(=O)C(CCOc2ccccc2CC(=O)O)Oc2ccccc21 (centres unmarked) [Compound 53]
0.9 | CCCCCCCCCN1C(=O)C(CCOc2ccccc2CC(=O)OC)Oc2ccccc21 (centres unmarked) [Compound 54]
7.1 | CCCCCCCCCN1C(=O)C(CCOc2ccccc2CC(=O)O)Oc2ccccc21 (centres unmarked) [Compound 55]
1.0 | CCCCCCCCCCN1C(=O)C(CCOc2ccccc2CC(=O)OC)Oc2ccccc21 (centres unmarked) [Compound 56]
9.9 | CCCCCCCCCCN1C(=O)C(CCOc2ccccc2CC(=O)O)Oc2ccccc21 (centres unmarked) [Compound 57]
0.8 | COC(=O)Cc1ccccc1OCCC1Oc2ccccc2N(CCC2CCCCC2)C1=O (centres unmarked) [Compound 65]
28.7 | CC(CCN1C(=O)C(CCOc2ccccc2CC(=O)O)Oc2ccccc21)CC(C)(C)C (centres unmarked) [Compound 76]
9.9 | COC(=O)Cc1ccccc1OCCC1Oc2ccccc2N(CCCCC(C)=O)C1=O (centres unmarked) [Compound 77, Benzeneacetic acid, 2-[2-[3,4-dihydro-3-oxo-4-(5-oxohexyl)-2H-1,4-benzoxazin-2-yl]ethoxy]-, methyl ester]
